Test results from patent US20140066620A1, “PYRIMIDINE SUBSTITUTED PURINE DERIVATIVES” (VERASTEM, INC., priority 2007, published 2014).

What was measured:
Truncated mTOR kinase = biological target: T1, Truncated mTOR kinase (Homo sapiens, UniProt P42345); assay: mTOR Assay (radiometric phosphorylation of 4eBP1); format: biochemical; settings: 4eBP1 substrate, 10 μM ATP, 1 hour at room temperature
T1 construct: Truncated mTOR kinase and His-tagged 4eBP1 were produced in-house
Protocol: Truncated mTOR kinase and His-tagged 4eBP1 were produced in-house. [γ^33P]-ATP was purchased from Amersham (GE Healthcare). All chemicals, unless otherwise stated, were from Sigma-Aldrich.
Phosphorylation assays were initially performed in a final volume of 20 μL in 384-well polypropylene plate (Greiner). […] The reaction was initiated by adding 10 μL/well of 20 μM ATP solution (final assay concentration 10 μM ATP and 0.4 μCi/well of [γhu 33P]-ATP). After 1 hour incubation at room temperature, the reaction was terminated with 40 μL/well of 20 mM EDTA/1 mM ATP solution.
50 μL/well of the stopped reaction mix was then transferred to 384-well MultiScreenHTS-PH filter plate (Millipore) pre-added with 50 μL/well of 1% phosphoric acid. The plate was washed 4 times with 120 μL/well of 0.5% phosphoric acid via vacuum filtration. Finally, 10 μL/well of Optiphase™ SuperMix liquid scintillation cocktail (Perkin Elmer) was added. After minimum 1 hour of incubation, counting was performed in a Wallac MicroBeta TriLux scintillation counter using coincidence counting mode with crosstalk correction.

[1] = biological target: T2, Recombinant PI3K p110α/p85 (Homo sapiens, UniProt P42336); assay: PI3K Assay (radiometric lipid kinase assay); format: biochemical; settings: p110α/p85, 2 μM ATP, 1 hour at RT; read-out: IC50 (PI3Kα)
T2 construct: made in house
Protocol: Recombinant PI3K p110α/p85 was prepared in-house. Phosphatidylinositol (PtdIns), phosphotidylserine (PtdSer) and all other unspecified chemicals were purchased from Sigma-Aldrich. [γ^33P]ATP and Optiphase scintillant were obtained from Perkin Elmer.
Assays were performed in a final assay volume of 25 μL in 384-well Maxisorp plates (Nunc). […] Maxisorp plates were coated with 20 μL/well of a 1:1 mixture of PtdIns and PtdSer [0.1 mg/mL each dissolved in chloroform:ethanol (3:7)] and left overnight in a fume hood at room temperature (RT) to dry.
The reaction was incubated for 1 hour at RT and terminated with 30 μL/well of 50 mM EDTA solution. The plate was then washed twice with TBS, dried, and added with 30 μL/well of scintillant before it was counted in a MicroBeta Trilux.

PC3 cells = assay: Cell-based proliferation assay, PC3; settings: Homo sapiens, PC-3, 96 h treatment, Celltiter96 Aqueous One Solution
Protocol: (§1) Human cancer cell lines PC3 and DU145 (human prostate cancer cell lines), were obtained from ATCC. They were cultured in the media according to the ATCC work instructions. PC3 and DU145 cells were seeded at 1,000 cells per well in 96-well plates, respectively. The plates were incubated at 37° C., 5% CO2, for 24 h. Cells were treated with compounds at various concentrations for 96 h. Cell proliferation was then quantified using Celltiter96 Aqueous One Solution Cell Proliferation Assay from Promega (Madison Wis.). Dose response curves were plotted to determine IC50 values for the compounds using XL-fit (ID Business Solution, Emeryville, Calif.).

[2] = tested on: human breast cancer cell lines; settings: two of eight human breast cancer cell lines, resistant; cited from earlier work
DU145 cells = assay: Cell-based proliferation assay, DU145; settings: Homo sapiens, DU-145, 96 h treatment, Celltiter96 Aqueous One Solution
Protocol: as §1

human cancer cell lines = settings: different human cancer cell lines in vitro and xenograft models in vivo; read-out: IC50 (anti-neoplastic activity); cited from earlier work

T2 sequence (P42336 whole entry): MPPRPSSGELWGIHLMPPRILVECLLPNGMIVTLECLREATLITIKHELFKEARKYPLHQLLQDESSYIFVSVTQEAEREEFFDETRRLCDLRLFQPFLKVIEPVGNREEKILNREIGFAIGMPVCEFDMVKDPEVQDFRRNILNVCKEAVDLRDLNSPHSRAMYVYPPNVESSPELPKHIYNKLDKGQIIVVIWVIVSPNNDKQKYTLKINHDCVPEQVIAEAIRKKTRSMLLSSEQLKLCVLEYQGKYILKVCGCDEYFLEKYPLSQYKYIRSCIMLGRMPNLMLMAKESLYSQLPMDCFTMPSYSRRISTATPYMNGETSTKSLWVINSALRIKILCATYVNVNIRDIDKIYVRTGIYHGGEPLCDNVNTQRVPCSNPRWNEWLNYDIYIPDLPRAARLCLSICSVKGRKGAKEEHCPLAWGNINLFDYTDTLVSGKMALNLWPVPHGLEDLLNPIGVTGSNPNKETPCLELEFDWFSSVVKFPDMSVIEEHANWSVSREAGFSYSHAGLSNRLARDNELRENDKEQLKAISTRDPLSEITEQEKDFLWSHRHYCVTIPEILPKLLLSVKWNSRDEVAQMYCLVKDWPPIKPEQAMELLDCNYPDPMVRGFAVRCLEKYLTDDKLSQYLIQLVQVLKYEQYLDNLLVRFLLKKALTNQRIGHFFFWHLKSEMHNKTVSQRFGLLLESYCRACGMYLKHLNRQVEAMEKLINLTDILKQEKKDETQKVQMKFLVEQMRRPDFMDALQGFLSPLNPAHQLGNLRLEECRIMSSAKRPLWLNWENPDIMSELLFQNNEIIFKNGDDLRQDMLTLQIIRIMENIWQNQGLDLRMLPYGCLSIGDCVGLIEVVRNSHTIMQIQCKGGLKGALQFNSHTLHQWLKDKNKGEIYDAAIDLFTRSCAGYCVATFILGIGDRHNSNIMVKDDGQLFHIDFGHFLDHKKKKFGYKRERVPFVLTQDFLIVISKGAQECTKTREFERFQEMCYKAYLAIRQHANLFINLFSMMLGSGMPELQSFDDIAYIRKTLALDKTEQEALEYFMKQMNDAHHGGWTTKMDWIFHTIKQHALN
T2 sequence (P27986 whole entry partner): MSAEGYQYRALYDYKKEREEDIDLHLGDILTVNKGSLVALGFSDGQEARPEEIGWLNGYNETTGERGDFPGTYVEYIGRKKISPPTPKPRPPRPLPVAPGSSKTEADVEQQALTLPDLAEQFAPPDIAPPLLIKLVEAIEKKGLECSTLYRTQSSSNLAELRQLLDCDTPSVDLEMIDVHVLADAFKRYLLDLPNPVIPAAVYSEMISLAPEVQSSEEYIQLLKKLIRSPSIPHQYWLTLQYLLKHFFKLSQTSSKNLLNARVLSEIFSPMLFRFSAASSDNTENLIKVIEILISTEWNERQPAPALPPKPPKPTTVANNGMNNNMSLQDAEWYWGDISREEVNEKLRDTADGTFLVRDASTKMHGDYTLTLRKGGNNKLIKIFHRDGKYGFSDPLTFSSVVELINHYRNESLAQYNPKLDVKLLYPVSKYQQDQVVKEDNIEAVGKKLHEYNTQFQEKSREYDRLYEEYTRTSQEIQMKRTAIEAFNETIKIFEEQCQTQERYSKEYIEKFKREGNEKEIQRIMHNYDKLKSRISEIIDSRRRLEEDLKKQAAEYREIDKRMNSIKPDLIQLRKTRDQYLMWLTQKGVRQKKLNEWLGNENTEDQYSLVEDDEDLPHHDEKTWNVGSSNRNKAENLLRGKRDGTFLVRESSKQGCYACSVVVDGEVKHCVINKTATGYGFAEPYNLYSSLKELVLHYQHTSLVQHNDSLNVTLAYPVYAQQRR
T1 sequence (P42345 2156-2549 limits assumed): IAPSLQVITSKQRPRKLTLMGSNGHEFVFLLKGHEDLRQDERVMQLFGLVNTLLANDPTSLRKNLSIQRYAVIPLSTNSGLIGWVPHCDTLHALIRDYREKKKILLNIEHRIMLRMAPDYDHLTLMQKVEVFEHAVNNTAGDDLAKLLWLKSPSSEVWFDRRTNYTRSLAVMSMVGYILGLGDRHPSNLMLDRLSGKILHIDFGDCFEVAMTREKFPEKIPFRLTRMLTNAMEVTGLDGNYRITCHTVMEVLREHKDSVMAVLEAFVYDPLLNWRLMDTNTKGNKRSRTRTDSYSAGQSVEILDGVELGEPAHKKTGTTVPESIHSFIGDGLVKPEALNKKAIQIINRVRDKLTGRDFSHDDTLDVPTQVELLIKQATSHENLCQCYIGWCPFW

Row | Compound | IC50 (Truncated mTOR kinase) | IC50 [1] | further results
1 | CC1CCC(n2cnc3c(-c4cnc(N)nc4)nc(N4CCOCC4)nc32)C1 (mixture of isomers) [Compound 37] | < 1 µM | < 1 µM | IC50 (PC3 cells): ≤ 1 µM
2 | CO[C@H]1C[C@@H]2CC[C@@H](C)[C@@](O)(O2)C(=O)C(=O)N2CCCC[C@H]2C(=O)O[C@H]([C@H](C)C[C@@H]2CC[C@@H](OC(=O)C(C)(CO)CO)[C@H](OC)C2)CC(=O)[C@H](C)/C=C(\C)[C@@H](O)[C@@H](OC)C(=O)[C@H](C)C[C@H](C)/C=C/C=C/C=C/1C [CCI-779] |  |  | IC50 [2]: > 1 µM
3 | Nc1ncc(-c2nc(N3CCOCC3)nc3c2ncn3Cc2c(F)cccc2F)cn1 [Compound 1] | 1 to 5 µM | < 1 µM | 
4 | Nc1ncc(-c2nc(N3CCOCC3)nc3c2ncn3CC2CC2)cn1 [Compound 3] | < 1 µM | < 1 µM | IC50 (DU145 cells): 1 to 5 µM
5 | c1ccc(Cn2cnc3c(-c4cncnc4)nc(N4CCOCC4)nc32)cc1 [Compound 4] | > 5 µM | < 1 µM | 
6 | CC(COC(C)(C)C)n1cnc2c(-c3cnc(N)nc3)nc(N3CCOCC3)nc21 (stereo not drawn) [Compound 5] | 1 to 5 µM | < 1 µM | 
7 | CCC(C)n1cnc2c(-c3cncnc3)nc(N3CCOCC3)nc21 (stereo not drawn) [Compound 6] | 1 to 5 µM | < 1 µM | 
8 | Nc1ncc(-c2nc(N3CCOCC3)nc3c2ncn3C2CCCC2)cn1 [Compound 7] | < 1 µM | < 1 µM | 
9 | CCC(C)n1cnc2c(-c3cnc(N)nc3OC)nc(N3CCOCC3)nc21 (stereo not drawn) [Compound 8] | < 1 µM | < 1 µM | 
10 | CC(c1ccccc1)n1cnc2c(-c3cnc(N)nc3)nc(N3CCOCC3)nc21 (stereo not drawn) [Compound 9] | 1 to 5 µM | < 1 µM | 
11 | CC(C1CC1)n1cnc2c(-c3cnc(N)nc3)nc(N3CCOCC3)nc21 (stereo not drawn) [Compound 10] | < 1 µM | < 1 µM | IC50 (PC3 cells): ≤ 1 µM
12 | COc1nc(N)ncc1-c1nc(N2CCOCC2)nc2c1ncn2C(C)C1CC1 (stereo not drawn) [Compound 11] | 1 to 5 µM | < 1 µM | 
13 | COCC(C)n1cnc2c(-c3cnc(N)nc3)nc(N3CCOCC3)nc21 (stereo not drawn) [Compound 12] | < 1 µM | < 1 µM | 
14 | COCC(C)n1cnc2c(-c3cnc(N)nc3OC)nc(N3CCOCC3)nc21 (stereo not drawn) [Compound 13] | 1 to 5 µM | < 1 µM | 
15 | CCC(C)n1cnc2c(-c3cnc(N)nc3C)nc(N3CCOCC3)nc21 (stereo not drawn) [Compound 14] | > 5 µM | < 1 µM | 
16 | Cc1nc(N)ncc1-c1nc(N2CCOCC2)nc2c1ncn2C(C)C1CC1 (stereo not drawn) [Compound 15] | > 5 µM | < 1 µM | 
17 | COCC(C)n1cnc2c(-c3cnc(N)nc3C)nc(N3CCOCC3)nc21 (stereo not drawn) [Compound 16] | > 5 µM | < 1 µM | 
18 | Cc1nc(N)ncc1-c1nc(N2CCOCC2)nc2c1ncn2C(C)c1ccccc1 (stereo not drawn) [Compound 17] | > 5 µM | < 1 µM | 
19 | Nc1ncc(-c2nc(N3CCOCC3)nc3c2ncn3C2CCOC2)cn1 (stereo not drawn) [Compound 18] | < 1 µM |  | IC50 (PC3 cells): ≤ 1 µM
20 | Nc1ncc(-c2nc(N3CCOCC3)nc3c2ncn3[C@H]2CCOC2)cn1 [Compound 18] |  | < 1 µM | 
21 | CC(C)(C)OC(=O)N1CCC(n2cnc3c(-c4cnc(N)nc4)nc(N4CCOCC4)nc32)CC1 [Compound 19] | < 1 µM | < 1 µM | IC50 (PC3 cells): ≤ 1 µM

Row | Compound | IC50 (Truncated mTOR kinase) | IC50 [1] | further results
22 | CCC(C)n1cnc2c(-c3cnc(NC)nc3)nc(N3CCOCC3)nc21 (stereo not drawn) [Compound 20] | < 1 µM | < 1 µM | 
23 | CCCC(=O)N1CCC(n2cnc3c(-c4cnc(N)nc4)nc(N4CCOCC4)nc32)CC1 [Compound 21] | < 1 µM | < 1 µM | IC50 (PC3 cells): ≤ 1 µM
24 | CC(C)C(C)n1cnc2c(-c3cnc(N)nc3)nc(N3CCOCC3)nc21 (stereo not drawn) [Compound 22] | < 1 µM | < 1 µM | IC50 (PC3 cells): ≤ 1 µM
25 | CCC(C#N)n1cnc2c(-c3cnc(N)nc3)nc(N3CCOCC3)nc21 (stereo not drawn) [Compound 23] | < 1 µM | < 1 µM | IC50 (PC3 cells): ≤ 1 µM
26 | CCC(CC)n1cnc2c(-c3cnc(N)nc3)nc(N3CCOCC3)nc21 [Compound 24] | < 1 µM | < 1 µM | 
27 | CC[C@@H](C)n1cnc2c(-c3cnc(N)nc3)nc(N3CCOCC3)nc21 [Compound 25] |  |  | IC50 (PC3 cells): ≤ 1 µM
28 | CCC(C)n1cnc2c(-c3cnc(N)nc3)nc(N3CCOCC3)nc21 (stereo not drawn) [Compound 26] |  |  | IC50 (PC3 cells): ≤ 1 µM
29 | Cc1cccc(-n2cnc3c(-c4cnc(N)nc4)nc(N4CCOCC4)nc32)c1 [Compound 27, 5-(2-morpholin-4-yl-9-m-tolyl-9H-purin-6-yl)-pyrimidin-2-yl-amine] | < 1 µM | < 1 µM | 
30 | Nc1ncc(-c2nc(N3CCOCC3)nc3c2ncn3C2CCNC2)cn1 (stereo not drawn) [Compound 28] | 1 to 5 µM |  | 
31 | CC(C)(C)Cn1cnc2c(-c3cnc(N)nc3)nc(N3CCOCC3)nc21 [Compound 29] | < 1 µM | < 1 µM | IC50 (PC3 cells): ≤ 1 µM
32 | Nc1ncc(-c2nc(N3CCOCC3)nc3c2ncn3C2CCc3ccccc3C2)cn1 (stereo not drawn) [Compound 30] | < 1 µM | < 1 µM | 
33 | Nc1ncc(-c2nc(N3CCOCC3)nc3c2ncn3C2Cc3ccccc3C2)cn1 [Compound 31] | < 1 µM | < 1 µM | 
34 | Nc1ncc(-c2nc(N3CCOCC3)nc3c2ncn3C2CCN(C(=O)c3ccccc3)C2)cn1 (stereo not drawn) [Compound 32] | < 1 µM | < 1 µM | 
35 | Cc1ccc(C(=O)N2CCC(n3cnc4c(-c5cnc(N)nc5)nc(N5CCOCC5)nc43)C2)s1 (stereo not drawn) [Compound 33, {3-[6-(2-Amino-pyrimidin-5-yl)-2-morpholin-4-yl-purin-9-yl]-pyrrolidin-1-yl}-(5-methyl-thiophen-2-yl)-methanone] | < 1 µM | < 1 µM | 
36 | Nc1ncc(-c2nc(N3CCOCC3)nc3[nH]cnc23)cn1 [Compound 34] | 1 to 5 µM | < 1 µM | 
37 | CCC(C)n1cnc2c(-c3cnc(N)nc3)nc(N3CCOCC3C)nc21 (stereo not drawn) [Compound 35] | < 1 µM |  | IC50 (PC3 cells): ≤ 1 µM
38 | CCC(C)n1cnc2c(-c3cnc(N)nc3)nc(N3CCOC[C@@H]3C)nc21 (stereo partly drawn) [Compound 35] |  | < 1 µM | 
39 | CC1CCC(n2cnc3c(-c4cnc(N)nc4)nc(N4CCOCC4)nc32)CC1 (stereo not drawn) [Compound 36] | < 1 µM | < 1 µM | 
40 | Nc1ncc(-c2nc(N3CCOCC3)nc3c2ncn3-c2ccccc2)cn1 [Compound 38] | < 1 µM | < 1 µM | 
41 | CCC(C)n1c(Br)nc2c(-c3cnc(N)nc3)nc(N3CCOCC3)nc21 (stereo not drawn) [Compound 42, 5-(8-Bromo-9-sec-butyl-2-morpholin-4-yl-9H-purin-6-yl)-pyrimidin-2-ylamine] |  |  | IC50 (PC3 cells): ≤ 1 µM
42 | CO[C@H]1C[C@@H]2CC[C@@H](C)[C@@](O)(O2)C(=O)C(=O)N2CCCC[C@H]2C(=O)O[C@H]([C@H](C)C[C@@H]2CC[C@@H](OCCO)[C@H](OC)C2)CC(=O)[C@H](C)/C=C(\C)[C@@H](O)[C@@H](OC)C(=O)[C@H](C)C[C@H](C)/C=C/C=C/C=C/1C [RAD001, 40-O-(2-hydroxyethyl)-rapamycin] |  |  | IC50 (human cancer cell lines): 0.005 to 1.8 µM
